Measurements reported in PMC12154426, “TPP-Based Nanovesicles Kill MDR Neuroblastoma Cells and Induce Moderate ROS Increase, While Exerting Low Toxicity Towards Primary Cell Cultures: An In Vitro Study” (International Journal of Molecular Sciences, 2025).
Like-named read-outs stand apart in the source and are kept apart here.

Test system: HTLA 230
Assay: MTS cell viability assay on HTLA 230 NB cells
Type: cell-based, human
Conditions: for cytotoxic effects vs. HTLA 230 higher than vs. HTLA ER: from IC50 values
Method: In this section, the strong anticancer effect of BPPB against ETO-sensitive HTLA 230 and multidrug-resistant (MDR) HTLA ER neuroblastoma (NB) cells previously reported was confirmed. Cell viability in HTLA 230 and HTLA ER cells exposed to increasing concentrations of BPPB for 24, 48, and 72 h was assessed by using the MTS essay, which is an efficient, eco- and user-friendly tool, commonly used to investigate the behaviour of cancer cells when exposed to specific treatments and how these treatments influence their growth and viability.
Following this, µM concentrations (x) were transformed in Log10 (x) (Figure 1e (HTLA 230) and Figure 1f (HTLA ER), traces with indicators and error bar). The nonlinear regression models of the Log10 (BPPB concentrations) vs. the normalized response (Hill Slope) shown in Figure 1e (HTLA 230) and Figure 1f (HTLA ER), traces without indicators, elaborated by GraphPad Prism software version 8.0.1 (GraphPad Software, Boston, MA, USA), gave us the IC50 values of BPPB for both cell populations at 24, 48, and 72 h of treatment.
HTLA 230 is a MYCN-amplified human stage-IV NB cell line, obtained from the G. Gaslini Institute, Genoa, Italy. The cytogenetic features of the HTLA 230 cell line include […] MYCN amplification, del(11)t(11;Y), balanced translocation t(1;17)(p36;q21), and dup(11p), which were previously described by Pezzolo et al.. Cells were periodically tested for mycoplasma contamination (Mycoplasma Reagent Set, Aurogene s.p.a, Pavia, Italy). After thawing and eight passages in the culture, cell morphology and proliferation were analyzed. […] Both cell populations were cultured in RPMI 1640 (Euroclone SpA, Pavia, Italy) supplemented with 10% fetal bovine serum (FBS; Euroclone, Pavia, Italy), 2 mM glutamine (Euroclone, Pavia, Italy), 1% penicillin/streptomycin (Euroclone, Pavia, Italy), 1% sodium pyruvate (Sigma-Aldrich, Sant Louis, MO, USA), and 1% amino acid solution (Sigma).
To determine the cytotoxic effects of BPPB, in vitro time- and dose-dependent experiments were carried out, as recently described. Briefly, cells were treated for 24, 48, and 72 h, with increasing concentrations (0.1–2.0 µM) of the compound. […] Cell cultures were carefully monitored before and during the experiments to ensure optimal cell density.
Cell viability was determined by using the CellTiter 96® AQueous One Solution Cell Proliferation MTS Assay (Promega, Madison, WI, USA), as previously described. MTS is a colorimetric method commonly used for determining cell viability. The cell survival rate, expressed as the cell viability percentage (%), was evaluated based on the experimental outputs of treated cells vs. the untreated ones (CTRs), and was calculated as follows: cell viability (%) = (OD treated cells − OD blank)/(OD untreated cells − OD blank) × 100%. IC50 values were calculated by GraphPad Prism 8.0.1 Software (GraphPad Software v8.0, San Diego, CA, USA), as detailed in the Results and Discussion in Section 2.

## c1ccc([P+](CCCCCCCCCCCC[P+](c2ccccc2)(c2ccccc2)c2ccccc2)(c2ccccc2)c2ccccc2)cc1 [BPPB, 1,1-(1,12-dodecanediyl)-bis-[1,1,1]-triphenyl phosphonium di-bromide]
0.25 µM, 72 h
  cell viability: 47.6%
0.5 µM, 48 h
  cell viability: 41.8%
0.75 µM, 24 h
  cell viability: 42.5%
24 h
  concentration causing significant reduction in cells' viability: ≥ 0.5 µM
  cytotoxic effects vs. HTLA 230 higher than vs. HTLA ER: 25.3%
24 h, concentrations ≥ 0.75 µM up to 2 µM
  cell viability: 39.3–45.3%
24 h exposure, 0.1–2 µM, read-out: IC50 HTLA 230
  IC50: 926 ± 164 nM
48 h
  concentration causing significant reduction in cells' viability: ≥ 0.1 µM
  cytotoxic effects vs. HTLA 230 higher than vs. HTLA ER: 65.9%
48 h, concentrations ≥ 0.5 µM up to 2 µM
  cell viability: 36.2–41.9%
48 h exposure, 0.1–2 µM, read-out: IC50 HTLA 230
  IC50: 462 ± 103 nM
72 h
  concentration causing significant reduction in cells' viability: ≥ 0.25 µM
  cytotoxic effects vs. HTLA 230 higher than vs. HTLA ER: 67.5%
72 h, lowest value reached with increasing concentrations (up to 2 µM)
  cell viability: 21.7%
72 h exposure, 0.1–2 µM, read-out: IC50 HTLA 230
  IC50: 389 ± 83.6 nM
HTLA 230 and HTLA ER vs. SH-SY5Y, 24 h
  more cytotoxic than TiO2-Ta nanoparticles: 64–86 fold
HTLA 230 and HTLA ER, 24 h
  anticancer effects higher than compound 3 with PDT/SDT: 10.3–14.7 times
  more potent than Ag20Pep: 105–143 times
  more potent than Ag40Pep: 132–182 times
HTLA 230 and HTLA ER, 48 h
  more potent than Ag20Pep: 18–54 times
  more potent than Ag40Pep: 29–90 times
HTLA 230 and HTLA ER, 72 h
  cytotoxicity higher than that of compounds 9–13 of Skrzypczak et al.: 1.7–5.1 fold
  more cytotoxic than AgNPs: 4–30 times
Over 24, 48, 72 h exposure, read-out: IC50 values towards drug-sensitive HTLA 230
  IC50: 400 to 900 nM
